# Experimental data published in patent US5242684A, “Antimicrobial, low toxicity, non-irritating composition comprising a blend of bis-quaternary ammonium compounds coprecipitated with a copolymer of vinylpyrrolidone and an acrylamido or vinyl quaternary ammonium monomer” (ISP Investments Inc., priority 1991, dated 1993).
# Tests used:
# LD50 toxicity (on rats) = settings: rat, in vivo
# E.Coli = assay: Minimum Inhibitory Concentration (MIC) against E.Coli; format: cell-based; settings: Gram negative, coprecipitates at 50:50 wt. ratio with GAFQUAT HS-100, unit assumed
# Description: The antimicrobial activity of the products herein are represented by their Minimum Inhibitory Concentration (MIC) against E.Coli, a Gram negative microorganism. Their effect on skin is indicated by an Irritation Index. These properties are presented in the Table below for the individual compounds in blend D and the invention composition of several D, H and L blend compositions coprecipitated in a 50:50 wt. ratio with GAFQUAT® HS-100.
SMILES,LD50 (LD50 toxicity (on rats)) [mg/kg],MIC (E.Coli) [µg/mL]
CCCCCCCCCCCCCC[N+](C)(C)CCOCCOCC[N+](C)(C)CCCCCCCCCCCC [B compound in D blend],700,50
CCCCCCCCCCCC[N+](C)(C)CCOCCOCC[N+](C)(C)CCCCCCCCCCCC [A compound in D blend],300,100
CCCCCCCCCCCCCC[N+](C)(C)CCOCCOCC[N+](C)(C)CCCCCCCCCCCCCC [C compound in D blend],950,125
